# Patent US8562945B2, “Technetium- and rhenium-bis(heteroaryl) complexes and methods of use thereof” (Molecular Insight Pharmaceuticals, Inc., priority 2008, dated 2013)
# How the values were obtained:
# [1] = Rat tissue distribution of 99mTc complexes of example ligands (Table 6); type: in vivo, Sprague-Dawley Rats; conditions: 99mTc complex
# Description: Rat Tissue Distribution Studies. The distribution and pharmacokinetics of selected ^99mTc-SAAC complexes were evaluated in normal male Sprague Dawley rats (180-200 grams) administered via the tail vein as a bolus injection (approximately 10 μCi/rat) in a constant volume of 0.1 ml. The animals (n=5 per time point) were euthanized by asphyxiation with carbon dioxide at 5, 30, 60, and 120 min post injection. Tissues (blood, heart, lungs, liver, spleen, kidneys, adrenals, stomach, intestines (with contents), testes, skeletal muscle, bone and brain) were dissected, excised, weighed wet, and counted in an automated γ-counter (LKB Model 1282, Wallac Oy, Finland). Tissue time-radioactivity levels expressed as percent injected dose per gram of tissue (% ID/g) was determined.
# ^99mTc Complexes of various example ligands in Sprague-Dawley Rats.
# [2] = Determination of Log P values of 99mTc-SAAC complexes; type: physicochemical; conditions: 99mTc complex; n-octanol / 25 mM pH=7.4 phosphate buffer
# Description: Determination of Log P Values. The Log P values of the ^99mTc(I)-complexes were determined as follows. The ^99mTc-SAAC complexes were prepared and purified by RP-HPLC. The desired peak was collected and the sample was evaporated under a stream of nitrogen. The residue was dissolved in 25 μL of saline and placed in an equal volume of n-octanol (3 mL) and 25 mM pH=7.4 phosphate buffer (3 mL). The samples were mixed under vortex for 20 min, centrifuged at 8000 rpm for 5 min and three 100 μL aliquots were removed from both the aqueous and the organic layers for analysis on a gamma counter (Wallac 1282). Subsequently, 1 mL of the phosphate bufferTc-complex solution was removed and the process was repeated with fresh n-octanol, for a total number of six extractions to ensure full extraction of all the organic components. The partition coefficients were calculated using the equation: P=(activity concentration in n-octanol)/(activity concentration in aqueous layer). The Log P values reported were calculated from the average of the different measurements.
# [3] = Normal rat tissue distribution studies of 99mTc-SAAC complexes (Table 5); type: in vivo, male Sprague Dawley rats; conditions: tail vein, average ± SEM
# Description: Normal Rat Tissue Distribution Studies. Normal rat tissue distribution studies were performed with [^99mTc(CO)3{η^3-(DpK)}], [Tc(CO)3{η^3-(DTK)}] and [Tc(CO)3{η^3-(PAMAK)}] in groups of male Sprague Dawley rats (n=4/group, 180-200 grams each) at 5, 30, 60, and 120 minutes post injection. The compounds were injected via the tail vein in saline (10 μCi/100 μl). […] All three SAAC ligands had very high accumulation and retention in the gastrointestinal (GI) tract. […] The design of hydrophilic SAAC ligands may alter the pharmacokinetics by mitigating the lipophilicity of the complex and potentially favoring renal, over liver and GI clearance. Such a result may facilitate the development of clinically relevant molecular imaging radiopharmaceuticals with desirable pharmacokinetic properties.
Blood tissue distribution ([1]; 5 min),Blood tissue distribution ([1]; 30 min),Blood tissue distribution ([1]; 60 min),Blood tissue distribution ([1]; 120 min),GI tissue distribution ([1]; 5 min),GI tissue distribution ([1]; 30 min),GI tissue distribution ([1]; 60 min),GI tissue distribution ([1]; 120 min),Kidney tissue distribution ([1]; 5 min),Kidney tissue distribution ([1]; 30 min),Kidney tissue distribution ([1]; 60 min),Kidney tissue distribution ([1]; 120 min),Liver tissue distribution ([1]; 5 min),Liver tissue distribution ([1]; 30 min),Liver tissue distribution ([1]; 60 min),Liver tissue distribution ([1]; 120 min),Sk. Muscle tissue distribution ([1]; 5 min),Sk. Muscle tissue distribution ([1]; 30 min),Sk. Muscle tissue distribution ([1]; 60 min),Sk. Muscle tissue distribution ([1]; 120 min),Compound,other results
1.33 ± 0.2 % ID/g,1.14 ± 0.23 % ID/g,0.86 ± 0.17 % ID/g,0.72 ± 0.12 % ID/g,0.15 ± 0.02 % ID/g,0.44 ± 0.08 % ID/g,0.76 ± 0.31 % ID/g,1.22 ± 0.27 % ID/g,6.85 ± 1.85 % ID/g,10.7 ± 2.3 % ID/g,16.8 ± 4.8 % ID/g,10.2 ± 2.5 % ID/g,0.52 ± 0.07 % ID/g,0.55 ± 0.07 % ID/g,0.42 ± 0.08 % ID/g,0.39 ± 0.07 % ID/g,0.29 ± 0.04 % ID/g,0.21 ± 0.06 % ID/g,0.16 ± 0.03 % ID/g,0.14 ± 0.02 % ID/g,"N[C@@H](CCCCN(Cc1nccn1CC(=O)O)Cc1nccn1CC(=O)O)C(=O)O (stereo in doubt) [Compound 2, 2,2′-(2,2′-(5-amino-5-carboxypentylazanediyl)bis(methylene)bis(1H-imidazole-2,1-diyl))diacetic acid]",–
0.83 ± 0.09 % ID/g,0.09 ± 0.02 % ID/g,0.02 ± 0 % ID/g,0.01 ± 0 % ID/g,0.57 ± 0.13 % ID/g,2.33 ± 0.61 % ID/g,3.62 ± 0.3 % ID/g,2.96 ± 0.44 % ID/g,6.86 ± 0.86 % ID/g,12.13 ± 2.36 % ID/g,12.54 ± 1 % ID/g,12.54 ± 0.81 % ID/g,1.61 ± 0.32 % ID/g,0.35 ± 0.08 % ID/g,0.28 ± 0.07 % ID/g,0.14 ± 0.02 % ID/g,0.13 ± 0.02 % ID/g,0.02 ± 0.01 % ID/g,0.01 ± 0 % ID/g,0.01 ± 0 % ID/g,"CCOCCn1ccnc1CN(CCCC[C@H](N)C(=O)O)Cc1nccn1CCOCC (stereo in doubt) [Compound 4, 2-amino-6-(bis((1-(2-ethoxyethyl)-1H-imidazol-2-yl)methyl)amino)hexanoic acid]",–
1.46 ± 0.21 % ID/g,0.47 ± 0.05 % ID/g,0.14 ± 0.04 % ID/g,0.04 ± 0.01 % ID/g,0.34 ± 0.12 % ID/g,1.05 ± 0.2 % ID/g,1.39 ± 0.24 % ID/g,1.21 ± 0.27 % ID/g,13.82 ± 2.81 % ID/g,34.1 ± 5.59 % ID/g,40.25 ± 5.17 % ID/g,33.18 ± 2.75 % ID/g,1.06 ± 0.34 % ID/g,0.45 ± 0.04 % ID/g,0.24 ± 0.04 % ID/g,0.16 ± 0.02 % ID/g,0.3 ± 0.04 % ID/g,0.1 ± 0.01 % ID/g,0.04 ± 0.01 % ID/g,0.01 ± 0 % ID/g,"COC(Cn1ccnc1CN(CCCC[C@H](N)C(=O)O)Cc1nccn1CC(OC)OC)OC (stereo in doubt) [Compound 6, 2-amino-6-(bis((1-(2,2-dimethoxyethyl)-1H-imidazol-2-yl)methyl)amino)hexanoic acid]",–
–,–,–,–,–,–,–,–,–,–,–,–,–,–,–,–,–,–,–,–,NC(CCCCN1CC(=O)[O][Tc-][O]C(=O)C1)C(=O)O.[C-]#[O+].[C-]#[O+].[C-]#[O+] (stereo not shown) [Compound 7-Tc],Log P [2]: −2.20
1.18 ± 0.18 % ID/g,0.28 ± 0.03 % ID/g,0.11 ± 0.02 % ID/g,0.03 ± 0.01 % ID/g,0.15 ± 0.02 % ID/g,0.45 ± 0.11 % ID/g,0.84 ± 0.1 % ID/g,1.12 ± 0.37 % ID/g,6.65 ± 2.06 % ID/g,22.2 ± 3.9 % ID/g,25.4 ± 1.7 % ID/g,25.5 ± 3.4 % ID/g,0.8 ± 0.28 % ID/g,1.03 ± 0.21 % ID/g,0.86 ± 0.16 % ID/g,0.74 ± 0.14 % ID/g,0.22 ± 0.03 % ID/g,0.06 ± 0.02 % ID/g,0.03 ± 0.01 % ID/g,0.01 ± 0 % ID/g,"Cn1ccnc1CN(CCCC[C@H](N)C(=O)O)Cc1nccn1C [Compound 13, (S)-2-amino-6-(bis((1-methyl-1H-imidazol-2-yl)methyl)amino)hexanoic acid]",–
1.03 ± 0.14 % ID/g,0.45 ± 0.1 % ID/g,0.22 ± 0.02 % ID/g,0.09 ± 0.01 % ID/g,0.16 ± 0.01 % ID/g,1.96 ± 0.49 % ID/g,1.64 ± 0.64 % ID/g,2.53 ± 0.7 % ID/g,10.79 ± 1.97 % ID/g,17.05 ± 3.17 % ID/g,9.52 ± 2.54 % ID/g,3.94 ± 0.43 % ID/g,0.95 ± 0.14 % ID/g,3.02 ± 0.59 % ID/g,0.98 ± 0.22 % ID/g,0.44 ± 0.14 % ID/g,0.21 ± 0.05 % ID/g,0.09 ± 0.02 % ID/g,0.05 ± 0.01 % ID/g,0.02 ± 0 % ID/g,"Cn1ccnc1CN(CCCC[C@H](N)C(=O)O)CC(=O)O [Compound 18, (S)-2-amino-6-((carboxymethyl)((1-methyl-1H-imidazol-2-yl)methyl)amino) hexanoic acid]",–
–,–,–,–,–,–,–,–,–,–,–,–,–,–,–,–,–,–,–,–,(pyridylamine)monoacetic acid lysine [PAMA-K],Log P [2]: −1.80
–,–,–,–,–,–,–,–,–,–,–,–,–,–,–,–,–,–,–,–,[^99mTc(CO)3(DPK)],Blood tissue distribution ([3]; 5 Min post injection): 7.01 ± 1.38 % ID/g; Blood tissue distribution ([3]; 30 Min. post injection): 1.12 ± 0.31 % ID/g; Blood tissue distribution ([3]; 60 Min. post injection): 0.39 ± 0.16 % ID/g; Blood tissue distribution ([3]; 120 Min post injection): 0.18 ± 0.01 % ID/g; GI tissue distribution ([3]; 5 Min post injection): 4.65 ± 1.78 % ID/g; GI tissue distribution ([3]; 30 Min. post injection): 15.01 ± 1.82 % ID/g; GI tissue distribution ([3]; 60 Min. post injection): 24.46 ± 6.20 % ID/g; GI tissue distribution ([3]; 120 Min post injection): 38.90 ± 5.94 % ID/g; Kidney tissue distribution ([3]; 5 Min post injection): 8.88 ± 3.20 % ID/g; Kidney tissue distribution ([3]; 30 Min. post injection): 9.72 ± 0.68 % ID/g; Kidney tissue distribution ([3]; 60 Min. post injection): 9.47 ± 1.23 % ID/g; Kidney tissue distribution ([3]; 120 Min post injection): 7.08 ± 1.58 % ID/g; Liver tissue distribution ([3]; 5 Min post injection): 16.28 ± 5.12 % ID/g; Liver tissue distribution ([3]; 30 Min. post injection): 26.03 ± 1.50 % ID/g; Liver tissue distribution ([3]; 60 Min. post injection): 22.71 ± 1.14 % ID/g; Liver tissue distribution ([3]; 120 Min post injection): 14.44 ± 2.75 % ID/g
